Activity calls are given as the source filed them. The rule behind the calls is not given here.

Experiment [1] has as its system HL-60. In words: Antiproliferative activity against human HL60 cells assessed as reduction in cell viability at 20 uM measured after 72 hrs by MTT assay relative to control. Type of experiment: functional. (Tetrazolium dyes change colour on reduction, which living cells bring about.)
For experiment [2], the system named is SW480. The experiment is described as follows: Antiproliferative activity against human SW480 cells assessed as reduction in cell viability at 20 uM measured after 72 hours by MTT assay relative to control. The class given is functional.
In experiment [3] the test system is SW480. In words: Induction of cell cycle arrest in human SW480 cells assessed as accumulation of cells at S phase at 20 to 35 nM incubated for 72 hrs by propidium iodide staining based flow cytometric analysis. The class given is functional. On the technique in general: In flow cytometry, cells or beads pass a laser one at a time.
The test system of experiment [4] is SW480. In words: Antiproliferation activity against human SW480 cells assessed as reduction in cell viability measured after 72 hours by MTT assay. Type of experiment: functional, cell-based. Particulars: SW480, 72 h.
In experiment [5] the test system is HL-60. The experiment is described as follows: Induction of cell cycle arrest in human HL60 cells assessed as accumulation of cells at G2 phase incubated for 24 hrs by propidium iodide staining based flow cytometric analysis. Type of experiment: functional.
Experiment [6] concerns HL-60. The experiment is described as follows: Induction of cell cycle arrest in human HL60 cells assessed as accumulation of cells at S phase at 20 to 35 nM incubated for 24 hrs by propidium iodide staining based flow cytometric analysis. The class given is functional.
The test system of experiment [7] is SW480. The experiment is described as follows: Induction of cell death in human SW480 cells assessed as accumulation of large cells incubated for 72 hrs by Hoechst […] staining based fluorescence microscopic method. The class given is functional.
Experiment [8] addresses T1, DNA topoisomerase 1 (Homo sapiens) (UniProt P11387).
T1 sequence (whole entry): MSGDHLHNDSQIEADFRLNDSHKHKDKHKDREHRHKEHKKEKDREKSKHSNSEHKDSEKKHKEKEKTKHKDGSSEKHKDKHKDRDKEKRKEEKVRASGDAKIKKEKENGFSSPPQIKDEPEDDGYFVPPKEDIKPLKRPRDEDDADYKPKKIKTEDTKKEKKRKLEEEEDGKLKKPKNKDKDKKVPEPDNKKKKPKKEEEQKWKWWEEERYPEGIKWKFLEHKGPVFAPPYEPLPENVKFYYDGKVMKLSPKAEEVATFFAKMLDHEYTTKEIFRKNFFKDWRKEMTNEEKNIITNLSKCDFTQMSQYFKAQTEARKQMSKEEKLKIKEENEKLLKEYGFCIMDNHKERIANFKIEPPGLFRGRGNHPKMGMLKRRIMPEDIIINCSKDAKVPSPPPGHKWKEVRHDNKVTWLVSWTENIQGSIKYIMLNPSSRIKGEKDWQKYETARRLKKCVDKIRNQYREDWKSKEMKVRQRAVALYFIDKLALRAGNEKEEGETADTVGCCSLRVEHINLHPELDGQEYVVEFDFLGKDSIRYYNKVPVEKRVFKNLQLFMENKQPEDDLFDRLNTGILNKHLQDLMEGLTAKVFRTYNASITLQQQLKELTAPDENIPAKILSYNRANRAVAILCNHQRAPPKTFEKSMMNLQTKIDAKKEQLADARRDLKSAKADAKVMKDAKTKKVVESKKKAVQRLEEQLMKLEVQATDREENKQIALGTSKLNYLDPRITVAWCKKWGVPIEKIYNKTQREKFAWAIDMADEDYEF
The experiment is described as follows: Inhibition of human TOP1 assessed as decrease in relaxation of supercoiled DNA using supercoiled plasmid DNA pGEM1 as substrate at 10 uM preincubated for 30 mins by SDS gel electrophoresis method. Details: scale not given: the % may be the effect or the level left.

The subject of experiment [9] is HL-60. In words: Antiproliferation activity against human HL60 cells assessed as reduction in cell viability measured after 72 hrs by MTT assay. Type of experiment: functional, cell-based. Particulars: HL-60, 72 h.
Experiment [10] addresses T1, DNA topoisomerase 1 (Homo sapiens). The experiment is described as follows: Inhibition of human TOP1 assessed as decrease in relaxation of supercoiled DNA using supercoiled plasmid DNA pGEM1 as substrate at 1 uM preincubated for 30 mins by SDS gel electrophoresis method. Details: scale not given: the % may be the effect or the level left.
Experiment [11] has the same target. The experiment is described as follows: Inhibition of human TOP1 assessed as decrease in relaxation of supercoiled DNA using supercoiled plasmid DNA pGEM1 as substrate at 100 uM preincubated for 30 mins by SDS gel electrophoresis method. Details: scale not given: the % may be the effect or the level left.
Experiment [12] relates to HL-60. The experiment is described as follows: Induction of cell cycle arrest in human HL60 cells assessed as accumulation of cells at G2 phase at 20 to 35 nM incubated for 24 hrs by propidium iodide staining based flow cytometric analysis. Type of experiment: functional.
In experiment [13] the test system is SW480. In words: Induction of cell death in human SW480 cells assessed as accumulation of large nuclei incubated for 72 hrs by Hoechst […] staining based fluorescence microscopic method. Type of experiment: functional.
In experiment [14] the test system is SW480. In words: Induction of cell death in human SW480 cells assessed as accumulation of large nuclei at 2 uM incubated for 72 hrs by Hoechst […] staining based fluorescence microscopic method. Type of experiment: functional.
The test system of experiment [15] is SW480. In words: Induction of cell death in human SW480 cells assessed as accumulation of large cells at 2 uM incubated for 72 hrs by Hoechst […] staining based fluorescence microscopic method. Type of experiment: functional.
Experiment [16] relates to SW480. In words: Induction of cell cycle arrest in human SW480 cells assessed as accumulation in G2/M phase at 2 to 4 uM for 72 hrs by propidium iodide staining based flow cytometric analysis. Type of experiment: functional.
The subject of experiment [17] is SW480. In words: Induction of apoptosis in human SW480 cells assessed as activation of caspases preincubated for 72 hrs followed by addition of fluorescent pan-caspase substrate incubated for 90 mins by fluorescence based assay. Type of experiment: functional, cell-based.
The subject of experiment [18] is HL-60. In words: Induction of apoptosis in human HL60 cels assessed as activation of caspases preincubated for 24 hrs followed by addition of fluorescent pan-caspase substrate incubated for 90 mins by fluorescence based assay. The class given is functional, cell-based.
Experiment [19] concerns SW480. The experiment is described as follows: Induction of cell cycle arrest in human SW480 cells assessed as S phase cell cycle arrest at 2 to 4 uM incubated for 72 hrs by propidium iodide staining based flow cytometric analysis. Type of experiment: functional.
For experiment [20], the system named is HL-60. The experiment is described as follows: Induction of cell cycle arrest in human HL60 cells assessed as accumulation in G2/M phase at 2 to 4 uM 24 hrs by propidium iodide staining based flow cytometric analysis. The class given is functional.

For `Nc1cccc2cc3c(nc12)-c1nc2ccccc2c(=O)n1C3`, the “fold change (FC)” value in the experiment on HL-60 [1] is 0.02; with SW480 [2], 0.58.
The like results for `COc1cc(OC)c2cc3c(nc2c1)-c1nc2ccc(I)cc2c(=O)n1C3` were, in that order, 0.83 and 0.99.
With `COc1cc(OC)c2cc3c(nc2c1)-c1nc2ccc(N)cc2c(=O)n1C3`, the figures for the “fold change (FC)” value in the experiment on HL-60 [1] and in the experiment with SW480 [2] were 0.73 and 0.98, respectively.
The term IC50 denotes the concentration at which inhibition is half-maximal. With `CC[C@@]1(O)C(=O)OCc2c1cc1n(c2=O)Cc2cc3ccccc3nc2-1` [CAMPTOTHECIN], the result in the experiment with SW480 [3] and in the experiment on HL-60 [6] was Active. The results for the IC50 with SW480 [4] and in the experiment with HL-60 [9] were 210 nM and 18 nM, respectively. The Activity entry is “Dose-dependent effect” with HL-60 [5], 6% in [8], 2.1% in experiment [10] and 26.3% in experiment [11]. The “fold change (FC)” value with HL-60 [1] stood at 0; in the experiment with SW480 [2], 0.3. Also, the outcome with SW480 [7], in the experiment on HL-60 [12] and in the experiment on SW480 [13] was inactive.
For the molecule `O=c1c2ccccc2nc2n1Cc1cc3cccc(F)c3nc1-2`, the figures for the “fold change (FC)” value with HL-60 [1] and in the experiment with SW480 [2] were 0.61 and 0.88, respectively.
Take `Nc1ccc2nc3n(c(=O)c2c1)Cc1cc2cccc(N)c2nc1-3`: the result with SW480 [14], in the experiment with SW480 [15], with SW480 [16], with HL-60 [18] and in the experiment on HL-60 [20] was Active. The outcome with SW480 [17] and in the experiment on SW480 [19] was inactive. Further, the results for the IC50 in the experiment on SW480 [4] and with HL-60 [9] were 2030 nM and 820 nM, respectively. The results for the “fold change (FC)” value with HL-60 [1] and in the experiment on SW480 [2] were 0.01 and 0.31, respectively. Further, the Activity was 9 to 9.2% in experiment [8], 2.6% in [10] and 12.6 to 13% in [11].
As for `COc1ccc2nc3c(cc2c1)Cn1c-3nc2ccc(Br)cc2c1=O`, the “fold change (FC)” value with HL-60 [1] is recorded as 0.82. In addition, the “fold change (FC)” value with SW480 [2] was “inactive”.
On to `O=c1c2ccccc2nc2n1Cc1cc3ccccc3nc1-2` [LUOTONIN A], for which the “fold change (FC)” value in the experiment on HL-60 [1] was 0.83; in the experiment with SW480 [2], 0.91. The figures for the Activity in [8], in [10] and in experiment [11] were 2.6%, 2.1% and 16.3%, respectively.
In the case of `COc1cc(OC)c2cc3c(nc2c1)-c1nc2ccc(Br)cc2c(=O)n1C3`, in the experiment on HL-60 [1], the “fold change (FC)” value is “inactive”. In the experiment on SW480 [2], the “fold change (FC)” value turned out to be 0.89.
For `Nc1ccc2nc3c(cc2c1)Cn1c-3nc2ccccc2c1=O`, the entries for the “fold change (FC)” value in the experiment with HL-60 [1] and with SW480 [2] were 0.26 and 0.24, respectively.

For the origin of these results see ChEMBL document CHEMBL4619719, “A-ring and E-ring modifications of the cytotoxic alkaloid Luotonin A: Synthesis, computational and biological studies” (Bioorg Med Chem, 2020).
